Assay results taken from patent US20070128181A1, “Methods of Preventing Morbidity and Mortality by Perioperative Administration of a Blood Clotting Inhibitor” (priority 2002, published 2007).

System: patients with medically-refractory coronary artery disease scheduled for coronary artery bypass surgery
Experiment: Prospective, longitudinal study of aspirin use within 48 hours of revascularization in coronary artery bypass surgery patients
Assay type: in vivo
Source text: A prospective, longitudinal study enrolled 5,436 patients. Eligible patients included those with medically-refractory coronary artery disease and scheduled for coronary artery bypass surgery at 70 medical institutions among 17 countries in North and South America, Europe, the Middle East and Asia. At each institution, 100 patients were to be prospectively enrolled according to a systematic sampling scheme that allowed a random sampling of patients at each institution among all patients undergoing surgery at that institution.
Of the 5,436 patients enrolled, 5,065 patients completed the study and were included in the final analysis. Of the 371 patients excluded, 32 were excluded due to patient withdrawal, 2 due to death prior to surgery, 97 due to cancellation or rescheduling of surgery, 132 patients due to change in procedure, 11 due to inadvertent enrollment in another study, 86 due to incomplete data and 11 due to incomplete blood sampling, shipping or storage.
Aspirin was administered in doses of 160 mg to 650 mg to 3,001 patients within 48 hours of revascularization. All potential side-effects associated with aspirin use were recorded daily by blinded investigators. Independent investigators coded all medications received-including pro- and anti-thrombotic and pro- and anti-coagulant medications, and blood products—by day throughout hospitalization, as well as at admission and at discharge, or until death.
For each enrolled patient, approximately 7,500 fields of data were collected throughout the patient's index hospitalization, from admission until discharge, by independent investigators; treated physicians were blinded to all research data. Data included demographic, historical, clinical, laboratory, eloectrocardiographic, specialized testing, resource utilization, and adverse outcomes. Following last patient enrollment, all data fields for each patient were queried centrally for completeness and accuracy, with all changes documented prior to database closure.
All outcomes were prespecified, defined by protocol, and discerned by investigators blinded to treatment group. Fatal and non-fatal outcomes were classified as cardiac (myocardial infarction, congestive heart failure and cardiac death), cerebral (stroke, encephalopathy and cerebral death), renal (dysfunction, failure and renal death), gastrointestinal (ischemia, infarction and GI death), or other (such as infectious, pulmonary). The diagnosis of myocardial infarction required either: the development of new Q waves (as defined by Minnesota Code 1-1-1I or 1I-2-7); or new persistent S T-segment or T-wave changes (Minnesota Code 4-1,4-2, 5-1 or 5-2) associated with an elevation of CK-MB isoenzyme values; or autopsy evidence of acute myocardial infarction. The diagnosis of heart failure required either: the use of a ventricular assist device; or the use of continuous inotropic support for at least 24 hours; or autopsy evidence of heart failure. Cerebral outcomes were classified as: clinically diagnosed stroke or encephalopathy; or CT, MRI or autopsy evidence of a focal or global defect. Renal dysfunction was defined as: a serum creatinine ≧177 μmol/L accompanied by a ≧62 μmol/L rise over baseline; and renal failure was defined as dysfunction requiring dialysis, or autopsy evidence of renal failure. Gastrointestinal ischemia was defined as abdominal pain diagnosed as intestinal ischemia, or detected at exploration; infarction required bowel resection, or autopsy evidence of intestinal infarction.
The risk of death for aspirin taking versus control populations were compared using the Chi-Square test. Individual ischemic outcomes involving the heart, brain, kidney and gastrointestinal tract, and combined ischemic outcomes were compared using Fisher's Exact Test or the Chi-Square test as appropriate. Odds ratios and the 95% confidence intervals are presented with associated P values. […]

Structure (SMILES) | risks of dying and ischemic complications associated with platelet transfusion after reperfusion and prophylactic anti-fibrinolytics (FIG. 3A) | risk of dying during hospitalization (aspirin within 48 hours of revascularization, v. 5.9% without aspirin, P<0.0001) | risk of non-fatal ischemic complications associated with the heart, brain, kidney or gastrointestinal tract (aspirin within 48 hours of revascularization, v. 24.5% without aspirin, P<0.0001) | Odds Ratio, Multivariate Analyses for Morality (discontinuation of use (Table 3B)) | survival over the first 30 postsurgical days (early aspirin use, FIG. 2) | reduction in mortality (first use of aspirin 48 hours after surgery, not significant, P=0.534) | Gastritis, % of patients (human, in vivo) | Hemorrhage: Gastrointestinal tract bleeding, % of patients (human, in vivo) | Hemorrhage: Other Source of Bleeding, % of patients (human, in vivo) | Impaired Wound Healing, % of patients (human, in vivo) | Infection, % of patients (human, in vivo) | Return to operating room for bleeding, % of patients (human, in vivo) | Odds Ratio, Multivariate Analyses for Morality (use at admission (Table 3B)) | Odds Ratio, Multivariate Analyses for Morality (use following revascularization, 95% CI 0.19-0.40, P <0.0001) | Odds Ratio, Multivariate Analyses for Morality (use prior to surgery (Table 3B)) | Length of hospitalization (versus 11.32±9.44 without aspirin, P<0.0001) | patients who died within 12 hours of surgery (versus 25 patients in the control group) | patients who died within 48 hours of surgery (versus 42 patients from the control group) | Odds Ratio, Multivariate Analyses for Morality (use over the week prior to revascularization, 95% CI 1.23-3.25, P 0.005)
CC(=O)Oc1ccccc1C(=O)O [Aspirin, aspirin] | substantially reduced, but did not eliminate these risks | 1.4% | 13.6% | 1.04 | Improved survival | 15% | 0.33% | 1.1% | 1.7% | 4.5% | 8.4% | 1.9% | 1.46 | 0.27 | 0.77 | 9.57±7.14 | none | one | –
CC(=O)CC(c1ccccc1)c1c(O)c2ccccc2oc1=O (stereo not shown) [Warfarin/coumadin, warfarin] | – | – | – | – | – | – | – | – | – | – | – | – | – | – | – | – | – | – | 2.00
